Literature values as cited in US12336538B2, “Method for controlling rats and mice with cholecalciferol baits” (priority 2014, dated 2025).

How the values were obtained:
bait shyness = settings: Gould and Holmes, Pest Manag. Sci. 2008

Row | SMILES | suitability to control a rat population (rat population; 0.1% cholecalciferol alone, only one day of feeding, Posipischil and Schnorbach 1994) | suitability to control rat population (rat population; cholecalciferol alone, Kocher and Navjot 2013) | prevention of bait shyness to cholecalciferol (bait shyness)
1 | C=C1CC[C@H](O)C/C1=C/C=C1\CCC[C@]2(C)[C@@H]([C@H](C)CCCC(C)C)CC[C@@H]12 [cholecalciferol, Cholecalciferol] | not suitable to control a rat population | not suitable to control rat population | –
2 | COc1ccc2c(c1)[C@]13CCCC[C@@H]1[C@H](C2)N(C)CC3 [dextromethorphan] | – | – | ineffective
